The target in experiment [1] is T1, TetOn hLOX-1 CHO cells (human LOX-1) (Homo sapiens, UniProt P78380).
T1 construct: expressed in transfected cells
Description: Binding of DiI-labeled oxidized LDL to LOX-1 expressing cells under low temperature conditions. The settings on record: trimeric procyanidins of different structure at 0.1 μg/ml, on ice; Example 5. The class given is cell-based. How it is done:
It is said that caveola or clathrin is also involved in the incorporation of oxidized LDL into the cells, in addition to that mediated by LOX-1.
First, 100 μl of the suspension of LOX-1 expressing cells adjusted with the above culture medium so as to achieve a density of 1×10^5 cells/ml was dispensed into each well of a 96-well plate (manufactured by Costar, Product Number: 3603). In addition, in order to induce the expression of LOX-1, doxycycline (manufactured by Calbiochem) was added so that the final concentration thereof was 1 μg/ml. As a control, a well where no doxycycline was added so that no expression was induced was also prepared. This 96-well plate was incubated at 37° C. for 24 hours in a CO2 incubator, and each well was then washed with the aforementioned FBS(−) medium cooled to 4° C. […]
This 96-well plate was observed using the In Cell Analyzer 1000 system (manufactured by GE healthcare) to measure the DiI fluorescence intensity and the number of nuclei per each well, and the fluorescence intensity per single cell was determined in the same manner as in Example 2.
Further, the oxidized LDL binding rate (%) was calculated by the following formula (3). […]
Subsequently, the effects of these four types of trimeric procyanidins on the inhibition of the bonding between LOX-1 and oxidized LDL were evaluated. […]

The target of the next experiment is T2, ex-hLOX-1 protein (Homo sapiens, UniProt P78380).
T2 construct: IgK secretion signal (printed 'IgK selection signal') (N, cleaved yes); His tag (from vector pSecTag/FRT/V5His); made in house; host or cells: 293F cells (FreeStyle 293 Expression System)
Description: BIACORE measurement of direct bonding of procyanidins and LOX-1. The note with it: monomers to heptamers at 20 μM; peak 3 trimers at 1.25-20 μM; 120 s binding, 120 s dissociation; read-out: Dissociation Constant.

This note sets out measurements from patent US20120088896A1, “DRUG FOR INHIBITING LECTIN-LIKE OXIDIZED LDL RECEPTOR AND DRUG FOR PREVENTING ARTERIOSCLEROSIS” (NATIONAL CEREBRAL AND CARDIOVASCULAR CENTER, priority 2009, published 2012).

Description for ex-hLOX-1 protein: The direct bonding of procyanidins and LOX-1 was evaluated using the BIACORE system.
LOX-1 was fixed on a sensor chip, and the BIACORE measurement was carried out using the procyanidins as the liquid phase. The BIACORE measurements and analyses were conducted using the BIACORE 2000 (GE Healthcare). In addition, the sensor chip CM5 was used as a sensor chip, and the ex-hLOX-1 protein was immobilized on the sensor chip by employing the amine coupling method. A HEPES solution (consisted of 10 mM HEPES, 150 mM NaCl and 2 mM CaCl2) was degassed and used as the running buffer.
Among the procyanidins made to flow through the chip, monomeric to heptameric procyanidins were each adjusted to 20 μM using the running buffer and used for the measurement.
In addition, when the procyanidins were reacted in the sensor chip, the flow rate was set to 20 μl/min, and the dissociation constant was measured with 120 seconds of binding and 120 seconds of dissociation.

As for `Oc1cc(O)c2c(c1)O[C@H](c1ccc(O)c(O)c1)[C@H](O)[C@H]2c1c(O)cc2c(c1O)C(c1c(O)cc(O)c3c1O[C@H](c1ccc(O)c(O)c1)[C@H](O)C3)[C@@H](O)[C@@H](c1ccc(O)c(O)c1)O2` (single isomer, unassigned; peak 3) [peak 3, epi (4β → 6) epi (4β → 8) epi], in experiment [1], the “oxidized LDL binding rate (LOX-1 inhibiting activity)” value is “exhibited stronger LOX-1 inhibiting activities than the trimeric procyanidins represented by peaks 1 and 4”. Further, the Kd on ex-hLOX-1 protein was 3.8 µM.

For the molecule `Oc1cc(O)c2c(c1)O[C@H](c1ccc(O)c(O)c1)[C@H](O)[C@H]2c1c(O)cc2c(c1O)[C@H](c1c(O)cc(O)c3c1O[C@H](c1ccc(O)c(O)c1)[C@@H](O)C3)[C@@H](O)[C@@H](c1ccc(O)c(O)c1)O2` (single isomer, unassigned; peak 2) [peak 2, epi (4β → 6) epi (4β → 8) cat], the “oxidized LDL binding rate (LOX-1 inhibiting activity)” value in experiment [1] was “exhibited stronger LOX-1 inhibiting activities than the trimeric procyanidins represented by peaks 1 and 4”.
